Laboratory results published in US20200206139A1, “COMPOSITIONS FOR THE IMPROVED DELIVERY OF DRUGS” (BOARD OF REGENTS, THE UNIVERSITY OF TEXAS SYSTEM, priority 2017, published 2020).
In brackets after ≈: the same amount, converted by molar mass.

Legend:
[1] = Atovaquone solubility in pharmaceutical excipients; type: physicochemical; conditions: thermodynamic from solid
Description: Excess atovaquone (100 mg/mL) (Molekula, Irvine, Calif.) was added to each of the following excipients: Benzyl Benzoate, Tween 20, Tween 80, PEG 200, PEG 400, Labrafac, Labrafil, Capryol, Capmul, Captex, Propylene Glycol and Isopropyl Palmitate. The mixtures were shaken at 100 RPM at 37° C. for 48 hours. Each individual sample was centrifuged at 3000 RPM for 10 minutes. The supernatant was then filtered through a 0.45 μm PTFE filter. Quantification of atovaquone content in the filtrate was performed using a Dionex HPLC (Thermo Fisher Scientific Inc., Waltham, Mass.) with an Inertsil® ODS-2 column (5 μm, 4.6×250 mm) with a mobile phase 0.1% TFA ACN: 0.1% TFA H2O (80:20) at flow rate of 2 mL/min and a run time of 10 minutes.

[2] = Atovaquone solubility in pharmaceutical excipients; type: physicochemical; conditions: thermodynamic from solid; remark: listed apart in the source

Work on `O=C1C(O)=C([C@H]2CC[C@H](c3ccc(Cl)cc3)CC2)C(=O)c2ccccc21` [atovaquone] yielded a solubility at 48 h ([1]; Benzyl Benzoate (neat excipient), organic solvent or mixture, in Benzyl Benzoate, 37° C.) of 14300 µg/mL (≈ 39 mM), a solubility at 48 h ([1]; Capryol (neat excipient), oil or lipid, in Capryol, 37° C.) of 5540 µg/mL (≈ 15.1 mM) and a solubility at 48 h ([1]; Isopropyl Palmitate (neat excipient), oil or lipid, in Isopropyl Palmitate, 37° C.) of 2460 µg/mL (≈ 6.71 mM). For the same compound, the solubility at 48 h ([1]; Labrafil (neat excipient), oil or lipid, in Labrafil, 37° C.) was 3980 µg/mL (≈ 10.8 mM), the solubility at 48 h ([1]; Labrasol (neat excipient), organic solvent or mixture, in Labrasol, 37° C.) was 10200 µg/mL (≈ 27.9 mM) and the solubility at 48 h ([1]; PEG 200 (neat excipient), organic solvent or mixture, in PEG 200, 37° C.) was 4780 µg/mL (≈ 13 mM). It also gave a solubility at 48 h ([1]; PEG 400 (neat excipient), organic solvent or mixture, in PEG 400, 37° C.) of 7220 µg/mL (≈ 19.7 mM), a solubility at 48 h ([1]; Tween 20 (neat excipient), organic solvent or mixture, in Tween 20, 37° C.) of 9690 µg/mL (≈ 26.4 mM) and a solubility at 48 h ([2]; Capmul (neat excipient), oil or lipid, in Capmul, 37° C.) of 3470 µg/mL (≈ 9.46 mM). It also gave a solubility at 48 h ([2]; Captex (neat excipient), oil or lipid, in Captex, 37° C.) of 4590 µg/mL (≈ 12.5 mM), a solubility at 48 h ([2]; Labrafac (neat excipient), oil or lipid, in Labrafac, 37° C.) of 4080 µg/mL (≈ 11.1 mM) and a solubility at 48 h ([2]; Propylene Glycol (neat excipient), organic solvent or mixture, in Proplylene Gycol, 37° C.) of 380 µg/mL (≈ 1.04 mM). The solubility at 48 h ([2]; Tween 80 (neat excipient), organic solvent or mixture, in Tween 80, 37° C.) was 10200 µg/mL (≈ 27.9 mM).
